Test results: PubChem BioAssay AID1626 (SRMLSC, 2009)

Test system: M. tuberculosis H37Rv growth inhibition
Experiment: M. tuberculosis H37Rv growth inhibitors, H37Rv strain (AID 1626)
Conditions: for IC90: measured here: IC90 against H37Rv; for CC50: measured here: Vero cell cytotoxicity

## CC1=Nc2ccccc2/C1=C\c1nc(-c2ccc(C(F)(F)F)cc2)oc1O
  IC50: 1.71 µM
  IC90: > 100 µM
  CC50: > 40 µM

## Cc1cc(/C=N/n2cnnc2)c(C)n1-c1ccc(OCc2ccc(Cl)cc2Cl)cc1
  IC50: 8.02 µM
  IC90: 15 µM
  CC50: 21.6 µM

## Nc1scc(-c2ccncc2)c1Cl
  IC50: 5.32 µM
  IC90: > 100 µM
  CC50: > 40 µM

## COC(=O)C1C2c3ccccc3OC1(C)N=c1s/c(=C/c3cnn(C)c3C)c(=O)n12 (stereo unspecified)
  IC50: 2.43 µM
  IC90: 17.7 µM

## O=C(COC(=O)c1c2c(nc3ccccc13)/C(=C/c1cccc([N+](=O)[O-])c1)CCC2)NC1CCS(=O)(=O)C1 (stereo unspecified)
  IC50: 6.99 µM
  IC90: > 100 µM
  CC50: 34 µM

## O=[N+]([O-])c1ccc(O)c(C=Nc2ccc3oc(Cc4ccc(Cl)cc4)nc3c2)c1
  IC50: 26.4 µM
  IC90: > 100 µM

## O=[N+]([O-])c1ccc(Sc2nnnn2-c2ccccc2)nc1
  IC50: 8.34 µM
  IC90: 12.6 µM
  CC50: 8.99 µM

## O=C(C1CCN(c2nnc(-n3cccc3)s2)CC1)N1CCN(c2cccc(C(F)(F)F)c2)CC1
  IC50: 0.258 µM
  IC90: 1.05 µM
  CC50: > 40 µM

## O=C(Oc1ccc(Cl)c2cccnc12)C12CC3CC(CC(C3)C1)C2
  IC50: 4.52 µM
  IC90: 5.77 µM
  CC50: > 40 µM

## COc1ccc(NC(=O)CN(C)CC(=O)Nc2cccc(F)c2)cc1Cl
  IC50: 32 µM
  IC90: > 100 µM

## Cc1ccc(-c2noc(CCC(=O)NCCCN3CCN(c4cccc(Cl)c4)CC3)n2)cc1
  IC50: 9.9 µM
  IC90: 13.2 µM
  CC50: > 40 µM

## Cc1cccc(N=Nc2c(N)n[nH]c2-c2ccc(Cl)cc2)c1
  IC50: 59.1 µM
  IC90: > 100 µM

## O=C(C[n+]1cc(-c2ccccc2)n2c1CCC2)Nc1nc(-c2ccc(F)cc2)cs1
  IC50: 19.9 µM
  IC90: 42.8 µM

## CCOC(=O)c1cnc(-n2nc(C)cc2C)nc1NCc1ccc2c(c1)OCO2
  IC50: 4.62 µM
  IC90: > 100 µM
  CC50: > 40 µM

## O=c1c2ccccc2nc(-c2ccc(Cl)c(Cl)c2)n1O
  IC50: 43.8 µM
  IC90: > 100 µM
  CC50: > 40 µM

## CCOC(=O)CSc1ccc(-c2nc3cc(C)c(C)cc3[nH]2)cn1
  IC50: 1.09 µM
  IC90: 2.24 µM

## Cc1cc(Cl)n2ncc(-c3ccccc3)c2n1
  IC50: 58.1 µM
  IC90: > 100 µM
  CC50: > 40 µM

## Fc1cccc2sc(Nc3nnc(-c4ccco4)o3)nc12
  IC50: < 0.195 µM
  IC90: 3.19 µM
  CC50: 36.4 µM

## O=c1[nH]c(CN2CCCCC2)nc2c1C1(CCCCC1)Cc1ccccc1-2
  IC50: 4.01 µM
  IC90: > 100 µM

## COc1cccc(Nc2c3c(nc4c(-c5ccccc5)c(C)nn24)CCC3)c1
  IC50: 3.4 µM
  IC90: 5.95 µM
  CC50: > 40 µM

## CC(C)(C)c1ccccc1OCCCCCn1ccnc1
  IC50: 8.29 µM
  IC90: 10.9 µM
  CC50: > 40 µM

## Cc1ccccc1OCc1n(CC(=O)OC2CC(C)CCC2C(C)C)c2ccccc2[n+]1C (stereo unspecified)
  IC50: 3.74 µM
  IC90: 5.17 µM
  CC50: 24.4 µM

## O=C(OCc1nc2ccccc2s1)c1ccc(Br)o1
  IC50: 12.7 µM
  IC90: > 100 µM

## Cc1ccc(-c2csc3nc[nH]c(=S)c23)cc1C
  IC50: 20 µM
  IC90: > 100 µM
  CC50: 26.1 µM

## Nc1ccccc1Nc1cc(-c2ccccc2)[nH]n1
  IC90: > 100 µM

## Cc1cc(NC(=O)C2CCCC2)n(-c2nc3ccccc3[nH]2)n1
  IC50: 24.6 µM
  IC90: > 100 µM

## CCc1ccc(Nc2c([N+](=O)[O-])c(=O)oc3ccccc23)cc1
  IC90: > 100 µM
  CC50: > 40 µM

## COCc1cc(S(=O)c2ccc(Cl)cc2)nc(C)n1 (stereo unspecified)
  IC50: 15.1 µM
  IC90: 24.3 µM
  CC50: 22.1 µM

## CCOC(=O)COc1ccc2c(=O)cc(-c3ccccc3)oc2c1
  IC50: < 0.195 µM
  IC90: 0.963 µM

## Nc1ccc2ncccc2c1
  IC50: 37.9 µM
  IC90: > 100 µM

## Nc1c2c(nc3ccn(Cc4ccccc4)c(=O)c13)CCC2
  IC50: 7.11 µM
  IC90: 15.3 µM
  CC50: > 40 µM

## CC(=O)Nc1ccc(NC(=O)c2ccc(C3SCC(=O)N3CCc3ccccc3)cc2)cc1 (stereo unspecified)
  IC90: > 100 µM

## Cc1cc(C)c(-c2csc(NC(=O)/C=C/c3cccs3)n2)c(C)c1
  IC50: 4.66 µM
  IC90: 8.18 µM
  CC50: > 40 µM

## COc1ccc(Nc2nc(C)c3ccccc3n2)cc1
  CC50: > 40 µM

## CC(=O)NC(=O)c1ccc(-c2ccc(Cl)cc2)o1
  IC50: 11.3 µM
  IC90: > 100 µM

## O=C(Oc1ccc(Cl)cc1)c1ccc(N2CCOCC2)c([N+](=O)[O-])c1
  IC50: 1.46 µM
  IC90: 3.16 µM

## CC(C)(C)c1ccccc1OCCOCCN1CCCCCC1
  IC50: 57.8 µM
  IC90: > 100 µM

## Cc1nc([N+](=O)[O-])c(Br)n1CC(=O)c1ccc(Cl)cc1
  IC50: 16.8 µM
  IC90: 23.2 µM
  CC50: 30.6 µM

## COc1ccc(C[C@H]2CN3C(=NC[C@@H]3Cc3ccc(O)cc3)N2CCNC(=O)c2ccc(C)c(Br)c2)cc1
  IC50: 4.4 µM
  IC90: 6.16 µM
  CC50: > 40 µM

## Nc1ccc(C(=O)c2cccs2)cc1
  IC50: 22.1 µM
  IC90: > 100 µM

## Cc1nn2c(NCCCn3ccnc3)cc(C(C)C)nc2c1-c1ccccc1
  IC50: 7.66 µM
  IC90: 11.9 µM
  CC50: 26.4 µM
